The target of this assay is T1, γ-secretase (cleavage of rat c-Ret with HA tag in HEK293 cells) (Homo sapiens, UniProt P49768).
T1 construct: endogenous in cells; host or cells: 293/EBNA-1 cell strain (HEK293), transiently transfected with rat c-Ret-HA only
Kind of assay: Analysis of c-Ret processing in c-Ret-transfected 293/EBNA-1 cell strain (Western blotting with anti-HA antibody). The class given is cell-based. Details: dose or concentration left out as unconfirmed. As to conditions: Compound E added to culture broth, one day; 293/EBNA-1 (HEK293) cells transfected with rat c-Ret-HA; versus untreated sample. On the procedure:
Whether or not c-Ret is a substrate for γ-secretase was evaluated using HEK293 cells expressing a gene encoding c-Ret with an HA tag added to its C-terminus, in the presence of a γ-secretase inhibitor. As the γ-secretase inhibitor, (2S)-2-{[(3,5-difluorophenyl)acetyl]amino}-N-[(3S)-1-methyl-2-oxo-5-phenyl-2,3-dihydro-1H-1,4-benzodiazepin-3-yl]propanamide (hereinafter, sometimes referred to as “Compound E”) (Alexis Biochemicals) was used. 293/EBNA-1 cell strain (Invitrogen) was cultured in 6-well dishes containing 10% FBS (Hyclone)/DMEM (Invitrogen) under 5% CO2 at 37° C., followed by transfection thereinto of the gene encoding rat c-Ret with an HA tag added to its C-terminus using Lipofectamine 2000 (Invitrogen). After one day culture under the same conditions, 50 mM Compound E (Alexis Biochemicals) was added to the culture broth. Cells were cultured for another day under the same conditions. Then, the transfected HEK293 cells were collected with PBS (Sigma) and sonicated with a sonicator (Taitec VP-5S) to disrupt cells. Then, the quantity of protein was determined with Protein Assay Kit (BioRad). Samples (2 μg each) were taken from proteins obtained from Compound E-added cells and Compound E-not added cells, respectively, and subjected to SDS-PAGE, followed by Western blotting with an anti-HA antibody (Roche) (final concentration: 0.2 μg/ml). […]

Experimental findings from US20100190184A1, “SCREENING METHOD UTILIZING NOVEL SUBSTRATE C-RET FOR GAMMA-SECRETASE” (Eisai R & D Management Co., Ltd., priority 2007, published 2010) are described below.

SMILES strings stand for the structures.

With `C[C@H](NC(=O)Cc1cc(F)cc(F)c1)C(=O)N[C@H]1N=C(c2ccccc2)c2ccccc2N(C)C1=O` [Compound E, (2S)-2-{[(3,5-difluorophenyl)acetyl]amino}-N-[(3S)-1-methyl-2-oxo-5-phenyl-2,3-dihydro-1H-1,4-benzodiazepin-3-yl]propanamide], the “effect on cleavage of c-Ret by γ-secretase (c-Ret C terminal fragment band, Western blot)” value is reported as “a band around 50 kDa (CTF) was accumulated specifically as a c-Ret undegraded product”.
